According to ChEMBL document CHEMBL1131925, “Modulation of multidrug resistance in tumor cells by taxinine derivatives” (Bioorg Med Chem Lett, 1999):
Converted amounts (≈) assume the structure as drawn.

What was measured:
[1] = Amount of vincristine (VCR) accumulation in multidrug-resistant human ovarian cancer 2780AD cells at a concentration of 10 ug/mL.; assay type: functional, A2780 ADR
[2] = Amount of vincristine (VCR) accumulation in multidrug-resistant human ovarian cancer 2780AD cells at a concentration of 1 ug/mL.; assay type: functional, A2780 ADR
[3] = Cytotoxicity against murine lymphoma L1210 cells; assay type: functional, cell-based; settings: Mus musculus
[4] = Cytotoxicity against human epidermoid carcinoma KB cells; assay type: functional, cell-based

C=C1[C@@H](OC(=O)/C=C/c2ccccc2)CC[C@@]2(C)[C@@H](OC(=O)c3ccccc3)[C@H](OC(=O)c3ccccc3)C3=C(C)C(=O)C[C@@H]([C@@H](OC(C)=O)[C@H]12)C3(C)C
Vincristine accumulation [1]: 210% | Vincristine accumulation (% of control) [2]: 141%

C=C1[C@@H](OC(=O)/C=C/c2ccccc2)CC[C@@]2(C)[C@@H](OC(C)=O)[C@H](OC(C)=O)C3=C(C)C(=O)C[C@@H]([C@@H](OC(C)=O)[C@H]12)C3(C)C
Vincristine accumulation [1]: 571% | Vincristine accumulation (% of control) [2]: 195%

C=C1[C@@H](OC(=O)/C=C/c2ccccc2)CC[C@@]2(C)[C@@H](OC(=O)/C=C/c3ccccc3)[C@H](OC(=O)/C=C/c3ccccc3)C3=C(C)C(=O)C[C@@H]([C@@H](OC(=O)/C=C/c4ccccc4)[C@H]12)C3(C)C
Vincristine accumulation [1]: 230% | Vincristine accumulation (% of control) [2]: 186%

C=C1[C@@H](OC(=O)/C=C/c2ccccc2)CC[C@@]2(C)[C@@H](OC(C)=O)[C@H](OC(C)=O)C3=C(C)[C@H](OC(=O)/C=C/c4ccccc4)C[C@@H]([C@@H](OC(C)=O)[C@H]12)C3(C)C
Vincristine accumulation [1]: 234% | Vincristine accumulation (% of control) [2]: 157%

CC(=O)O[C@@H]1[C@@H]2CC(=O)C(C)=C([C@@H](OC(C)=O)[C@H](OC(C)=O)[C@]3(C)CC[C@H](OC(=O)c4ccccc4)[C@@]4(CO4)[C@@H]13)C2(C)C
Vincristine accumulation [1]: 402% | Vincristine accumulation (% of control) [2]: 140%

C=C1[C@@H](O)CC[C@@]2(C)[C@@H](OC(C)=O)[C@H](OC(C)=O)C3=C(C)C(=O)C[C@@H]([C@@H](OC(=O)/C=C/c4ccccc4)[C@H]12)C3(C)C
Vincristine accumulation [1]: 727% | Vincristine accumulation (% of control) [2]: 207%

C=C1[C@@H](OC(=O)c2ccccc2)CC[C@@]2(C)[C@@H](OC(=O)c3ccccc3)[C@H](OC(=O)c3ccccc3)C3=C(C)C(=O)C[C@@H]([C@@H](OC(C)=O)[C@H]12)C3(C)C
Vincristine accumulation [1]: 324% | Vincristine accumulation (% of control) [2]: 132%

C=C1[C@@H](O)CC[C@@]2(C)[C@@H](OC(C)=O)[C@H](OC(C)=O)C3=C(C)[C@@H](OC(=O)c4ccccc4)C[C@@H]([C@@H](OC(C)=O)[C@H]12)C3(C)C
Vincristine accumulation [1]: 643% | Vincristine accumulation (% of control) [2]: 185%

CC(=O)O[C@@H]1[C@@H]2CC(=O)C(C)=C([C@@H](OC(C)=O)[C@H](OC(C)=O)[C@]3(C)CC[C@H](O)[C@]4(CO4)[C@@H]13)C2(C)C
Vincristine accumulation [1]: 238% | Vincristine accumulation (% of control) [2]: 144%

C=C1[C@@H](OC(=O)c2ccccc2)CC[C@@]2(C)[C@@H](OC(C)=O)[C@H](OC(C)=O)C3=C(C)[C@@H](O)C[C@@H]([C@@H](OC(C)=O)[C@H]12)C3(C)C
Vincristine accumulation [1]: 649% | Vincristine accumulation (% of control) [2]: 151%

C=C1[C@@H](O)CC[C@@]2(C)[C@@H](OC(C)=O)[C@H](OC(C)=O)C3=C(C)[C@H](O)C[C@@H]([C@@H](OC(C)=O)[C@H]12)C3(C)C
Vincristine accumulation [1]: 290% | Vincristine accumulation (% of control) [2]: 149%

C=C1[C@@H](OC(=O)/C=C/c2ccccc2)CC[C@@]2(C)[C@@H](O)[C@H](O)C3=C(C)C(=O)C[C@@H]([C@@H](O)[C@H]12)C3(C)C
Vincristine accumulation [1]: 518% | Vincristine accumulation (% of control) [2]: 225%

C=C1[C@@H](O[Si](CC)(CC)CC)CC[C@@]2(C)[C@@H](OC(C)=O)[C@H](OC(C)=O)C3=C(C)C(=O)C[C@@H]([C@@H](OC(C)=O)[C@H]12)C3(C)C
Vincristine accumulation [1]: 669% | Vincristine accumulation (% of control) [2]: 213%

C=C1[C@@H](OC(=O)/C=C/c2ccccc2)CC[C@@]2(C)[C@@H](OC(=O)/C=C/c3ccccc3)[C@H](OC(=O)/C=C/c3ccccc3)C3=C(C)C(=O)C[C@@H]([C@@H](OC(C)=O)[C@H]12)C3(C)C
Vincristine accumulation [1]: 273% | Vincristine accumulation (% of control) [2]: 181%

C=C1[C@@H](OC(=O)c2ccccc2)CC[C@@]2(C)[C@@H](OC(C)=O)[C@H](OC(C)=O)C3=C(C)[C@H](OC(=O)c4ccccc4)C[C@@H]([C@@H](OC(C)=O)[C@H]12)C3(C)C
Vincristine accumulation [1]: 391% | Vincristine accumulation (% of control) [2]: 197%

C=C1[C@@H](OC(=O)/C=C/c2ccccc2)CC[C@@]2(C)[C@@H](O)[C@H](O)C3=C(C)C(=O)C[C@@H]([C@@H](OC(C)=O)[C@H]12)C3(C)C
Vincristine accumulation [1]: 619% | Vincristine accumulation (% of control) [2]: 274%

COc1ccc(CCN(C)CCCC(C#N)(c2ccc(OC)c(OC)c2)C(C)C)cc1OC (centres undefined) [VERAPAMIL]
Vincristine accumulation [1]: 739% | Vincristine accumulation (% of control) [2]: 254%

C=C1[C@@H](O)CC[C@@]2(C)[C@@H](OC(C)=O)[C@H](OC(C)=O)C3=C(C)[C@H](OC(=O)/C=C/c4ccccc4)C[C@@H]([C@@H](OC(C)=O)[C@H]12)C3(C)C
Vincristine accumulation [1]: 551% | Vincristine accumulation (% of control) [2]: 213%

CC(=O)O[C@@H]1[C@@H]2CC(=O)C(C)=C([C@@H](OC(C)=O)[C@H](OC(C)=O)[C@]3(C)CC[C@H](O)[C@@]4(CO4)[C@@H]13)C2(C)C
Vincristine accumulation [1]: 364% | Vincristine accumulation (% of control) [2]: 180%

CC(=O)O[C@@H]1[C@@H]2CC(=O)C(C)=C([C@@H](OC(C)=O)[C@H](OC(C)=O)[C@]3(C)CC[C@H](OC(=O)c4ccccc4)[C@]4(CO4)[C@@H]13)C2(C)C
Vincristine accumulation [1]: 391% | Vincristine accumulation (% of control) [2]: 200%

C=C1[C@@H](O)CC[C@@]2(C)[C@@H](OC(C)=O)[C@H](OC(C)=O)C3=C(C)C(=O)C[C@@H]([C@@H](OC(C)=O)[C@H]12)C3(C)C [TAXININE A]
Vincristine accumulation [1]: 461% | Vincristine accumulation (% of control) [2]: 153%

C=C1[C@@H](O)CC[C@@]2(C)[C@@H](OC(C)=O)[C@H](OC(C)=O)C3=C(C)[C@@H](O)C[C@@H]([C@@H](OC(C)=O)[C@H]12)C3(C)C
Vincristine accumulation [1]: 422% | Vincristine accumulation (% of control) [2]: 164%

CC(=O)O[C@@H]1[C@@H]2CC(=O)C(C)=C([C@@H](OC(C)=O)[C@H](OC(C)=O)[C@]3(C)CC[C@H](OC(=O)/C=C/c4ccccc4)[C@@]4(CO4)[C@@H]13)C2(C)C
Vincristine accumulation [1]: 1027% | Vincristine accumulation (% of control) [2]: 358% | IC50 [3]: 3 µg/mL (≈ 4.82 µM) | IC50 [4]: > 10 µg/mL

CC[Si](CC)(CC)O[C@H]1CC[C@@]2(C)[C@@H](OC(C)=O)[C@H](OC(C)=O)C3=C(C)C(=O)C[C@@H]([C@@H](OC(C)=O)[C@@H]2[C@]12CO2)C3(C)C
Vincristine accumulation [1]: 752% | Vincristine accumulation (% of control) [2]: 233%

C=C1[C@@H](O)CC[C@@]2(C)[C@@H](OC(C)=O)[C@H](OC(C)=O)C3=C(C)C(=O)C[C@@H]([C@@H](O)[C@H]12)C3(C)C
Vincristine accumulation [1]: 271% | Vincristine accumulation (% of control) [2]: 139%

C=C1[C@@H](O)CC[C@@]2(C)[C@@H](OC(C)=O)[C@H](OC(C)=O)C3=C(C)[C@@H](OC(=O)/C=C/c4ccccc4)C[C@@H]([C@@H](OC(C)=O)[C@H]12)C3(C)C
Vincristine accumulation [1]: 699% | Vincristine accumulation (% of control) [2]: 249%

C=C1[C@@H](OCOCc2ccccc2)CC[C@@]2(C)[C@@H](OC(C)=O)[C@H](OC(C)=O)C3=C(C)C(=O)C[C@@H]([C@@H](OC(C)=O)[C@H]12)C3(C)C
Vincristine accumulation [1]: 1110% | Vincristine accumulation (% of control) [2]: 401% | IC50 [3]: 8 µg/mL (≈ 13.4 µM) | IC50 [4]: 9 µg/mL (≈ 15.1 µM)

C=C1[C@@H](OC(=O)c2ccccc2)CC[C@@]2(C)[C@@H](OC(C)=O)[C@H](OC(C)=O)C3=C(C)C(=O)C[C@@H]([C@@H](OC(=O)c4ccccc4)[C@H]12)C3(C)C
Vincristine accumulation [1]: 470% | Vincristine accumulation (% of control) [2]: 146%

CC[Si](CC)(CC)O[C@H]1CC[C@@]2(C)[C@@H](OC(C)=O)[C@H](OC(C)=O)C3=C(C)C(=O)C[C@@H]([C@@H](OC(C)=O)[C@@H]2[C@@]12CO2)C3(C)C
Vincristine accumulation [1]: 748% | Vincristine accumulation (% of control) [2]: 227%

C=C1[C@@H](OC(=O)c2ccccc2)CC[C@@]2(C)[C@@H](OC(C)=O)[C@H](OC(C)=O)C3=C(C)C(=O)C[C@@H]([C@@H](OC(C)=O)[C@H]12)C3(C)C
Vincristine accumulation [1]: 645% | Vincristine accumulation (% of control) [2]: 184%
